From patent publication US7414107B2, “Pharmacologically active peptide conjugates having a reduced tendency towards enzymatic hydrolysis” (priority 1998, dated 2008)
Where no end group is shown, it is not given here.

Key:
vas deferens = conditions: read-out: EC50 value; half maximal inhibition of electrically-induced contraction, mouse vas deferens
Procedure: In short: vasa deferentia were isolated from male mice weighing 20-30 g (Mellegaard breeding, DK) and suspended through two electrodes in 10 ml baths at resting tension of 1 g. […] The tissues were stimulated electrically (70 V, 1 ms duration; 0.1 Hz) and contractions were recorded isometrically on a chart recorder. After equilibration of the tissue for at least 20 min, drugs were added in the bath and the maximum effects were measured.
Prior to addition of the plasma sample, a standard dose-response curve was generated in each preparation in order to express the inhibitory activity as concentration of each test substance. Thus, the calculated concentration is a reflection of inhibitory activity in the vas deferens bioassay preparation.
Where initial=initial […] contraction force prior to addition of test substance; conc=concentration of test substance; EC50=concentration of test substance that […] produced half maximal inhibition of electrically-induced contraction; background=contraction force during maximal relaxation.

YGGFLEEEEEE [Leu-Enkephalin-(Glu)6-OH, H-Tyr-Gly-Gly-Phe-Leu-Glu6-OH]
EC50 (vas deferens): 140 nM | solubility (Solubility (remark)): very low solubility
